Data: patent publication US20260109707A1, “HETEROBIFUNCTIONAL COMPOUNDS AND METHODS OF TREATING DISEASE” (Halda Therapeutics OpCo. Inc., priority 2022, published 2026)
Where two headings read alike, the source gives them in different places.

Tests used:
[1] = tested on: T-Rex 293 cell line SC3 cells having increased expression of androgen receptor protein due to exposure to doxycycline; assay: Cellular growth inhibition assay, T-Rex 293 SC3 cells with doxycycline (CellTiter-Glo, 72 hours); format: cell-based; settings: T-Rex 293 SC3 cells with increased androgen receptor expression due to doxycycline (10 ng/mL)
Procedure, shortened: (§1)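 Doxycycline (10 ng/mL) was either included or omitted to toggle wild-type androgen receptor expression in SC3 cells, a T-Rex 293 clone, grown in stripped-serum, phenol red-free medium. After 72 hours with compound, viable cells were quantified by CellTiter-Glo 2.0.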

[2] = tested on: VCaP cells; assay: Cellular growth inhibition assay for VCaP cells (CellTiter-Glo, 72 hours); format: cell-based, human
Procedure, shortened: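 Luminescent viability signal after 72 h of compound exposure gave GI50 values by four-parameter nonlinear regression. Compounds were added in 0.5% DMSO to cells plated 24 h earlier at 5000/well in DMEM containing 10% FBS.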

[3] = tested on: T-Rex 293 cell line SC3 cells lacking increased expression of androgen receptor protein; assay: Cellular growth inhibition assay, T-Rex 293 SC3 cells without doxycycline (CellTiter-Glo, 72 hours); format: cell-based; settings: T-Rex 293 cell line SC3 cells not exposed to doxycycline (lacking increased androgen receptor expression)
Procedure, shortened: as §1

Row | SMILES | GI50 [1] [nM] | GI50 ([2]; Homo sapiens, VCaP, 72 h) [nM] | GI50 [3] [nM] | GI50 ([1]; 72 h) [nM] | GI50 ([3]; 72 h) [nM] | GI50 [2] [nM]
1 | Cc1sc2c(c1C)C(c1ccc(OC3CC4(CCN(c5ccc(C(=O)N[C@H]6CC[C@H](Oc7ccc(C#N)c(Cl)c7)CC6)nn5)CC4)C3)cn1)=N[C@@H](C)c1nnc(C)n1-2 [I-461] | < 500 | < 500 | > 3000 |  |  | 
2 | CC[C@@H]1N=C(c2ccc(N3CCC4(CCN(c5ccc(C(=O)N[C@H]6CC[C@H](Oc7ccc(C#N)c(Cl)c7)CC6)nn5)CC4)C3)cc2)c2c(sc(C)c2C)-n2c(C)nnc21 [I-599] |  | > 3000 |  | < 500 | > 3000 | 
3 | Cc1sc2c(c1C)C(c1ccc(N3CC4(CC(CCc5ccc(C(=O)N[C@H]6CC[C@H](Oc7ccc(C#N)c(Cl)c7)CC6)nn5)C4)C3)cc1)=N[C@@H](C)c1nnc(C)n1-2 [I-594] |  | 500 to 1500 |  | < 500 | 500 to 1500 | 
4 | Cc1sc2c(c1C)C(c1ccc(CC3CC4(CCN(c5ccc(C(=O)N[C@H]6CC[C@H](Oc7ccc(C#N)c(Cl)c7)CC6)nn5)CC4)C3)cc1)=NC(C(F)(F)F)c1nnc(C)n1-2 (stereo partly drawn) [I-728] | > 3000 |  |  |  | > 3000 | > 3000
5 | Cc1sc2c(c1C)C(c1ccc(OC3CC(CC4CCN(c5ccc(C(=O)N[C@H]6CC[C@H](Oc7ccc(C#N)c(Cl)c7)CC6)nn5)CC4)C3)cc1)=N[C@@H](C)c1nnc(C)n1-2 (stereo partly drawn) [I-544] | < 500 |  | > 3000 |  |  | < 500
6 | Cc1sc2c(c1C)C(c1ccc(N3CCC4CN(c5ccc(C(=O)N[C@H]6CC[C@H](Oc7ccc(C#N)c(Cl)c7)CC6)nn5)CCC4C3)cc1)=NC1(CC1)c1nnc(C)n1-2 (stereo partly drawn) [I-563] | < 500 |  |  |  | < 500 | 500 to 1500
7 | Cc1sc2c(c1C)C(c1ccc(OC3CCC4(CCCN(c5ccc(C(=O)N[C@H]6CC[C@H](Oc7ccc(C#N)c(Cl)c7)CC6)nn5)C4)C3)cc1)=N[C@@H](C)c1nnc(C)n1-2 (stereo partly drawn) [I-537] | < 500 |  | > 3000 |  |  | > 3000
8 | Cc1sc2c(c1C)C(c1ccc(N3CCC4(CC3)CCN(c3ccc(C(=O)N[C@H]5CC[C@H](Oc6ccc(C#N)c(Cl)c6)CC5)nn3)C4)cc1F)=N[C@@H](C)c1nnc(C)n1-2 [I-767] | < 500 |  | < 500 |  |  | < 500
9 | Cc1sc2c(c1C)C(c1ccc(OC3CCC4(CCCN(c5ccc(C(=O)N[C@H]6CC[C@H](Oc7ccc(C#N)c(Cl)c7)CC6)nn5)C4)C3)cc1)=N[C@@H](C)c1nnc(C)n1-2 (stereo partly drawn) [I-538] | < 500 |  | > 3000 |  |  | < 500
10 | Cc1sc2c(c1C)C(c1ccc(N3CCC4(CCN(c5ccc(C(=O)N[C@H]6CC[C@H](Oc7ccc(C#N)c(Cl)c7)CC6)nn5)C4)CC3)c(F)c1)=N[C@@H](C)c1nnc(C)n1-2 [I-735] | < 500 |  | < 500 |  |  | < 500
11 | Cc1sc2c(c1C)C(c1cccc(OCCC3CCN(c4ccc(C(=O)N[C@H]5CC[C@H](Oc6ccc(C#N)c(Cl)c6)CC5)nn4)CC3)c1)=N[C@@H](C)c1nnc(C)n1-2 [I-647] |  | < 500 |  | < 500 | > 3000 | 
12 | Cc1sc2c(c1C)C(c1ccc(N3CCC4CN(c5ccc(C(=O)N[C@H]6CC[C@H](Oc7ccc(C#N)c(Cl)c7)CC6)nn5)CCC4C3)cc1)=N[C@@H](C)c1nnc(C)n1-2 (stereo partly drawn) [I-554] |  | 500 to 1500 | > 3000 | < 500 |  | 
13 | Cc1sc2c(c1C)C(c1ccc(COC3CCC4(C3)CN(c3ccc(C(=O)N[C@H]5CC[C@H](Oc6ccc(C#N)c(Cl)c6)CC5)nn3)CCO4)cc1)=N[C@@H](C)c1nnc(C)n1-2 (stereo partly drawn) [I-558] | < 500 |  | < 500 |  |  | < 500
14 | Cc1sc2c(c1C)C(c1ccc(N3CCC4(CCN(c5ccc(C(=O)N[C@H]6CC[C@H](Oc7ccc(C#N)c(Cl)c7)CC6)nn5)C4)C3)cc1)=NC1(CC1)c1nnc(C)n1-2 (stereo partly drawn) [I-521] |  |  |  | < 500 | < 500 | 1500 to 3000
15 | Cc1sc2c(c1C)C(c1ccc(N3CCCC(CN(C)c4ncc(C(=O)N[C@H]5CC[C@H](Oc6ccc(C#N)c(Cl)c6)CC5)cn4)C3)cc1)=NC(Cc1ncco1)c1nnc(C)n1-2 (stereo partly drawn) [I-797, N-((1r,4r)-4-(3-chloro-4-cyanophenoxy)cyclohexyl)-2-(methyl((1-(4-(2,3,9-trimethyl-6-(oxazol-2-ylmethyl)-6H-thieno[3,2-f][1,2,4]triazolo[4,3-a][1,4]diazepin-4-yl)phenyl)piperidin-3-yl)methyl)amino)pyrimidine-5-carboxamide] |  | < 500 |  | < 500 | < 500 | 
16 | Cc1sc2c(c1C)C(c1ccc(NCCCN3CCN(c4ncc(C(=O)N[C@H]5CC[C@H](Oc6ccc(C#N)c(Cl)c6)CC5)cn4)CC3)cc1)=NC(Cc1ncco1)c1nnc(C)n1-2 (stereo partly drawn) [I-793] |  | < 500 |  | < 500 | < 500 | 
